Results taken from patent US8492087B2, “Method of judging risk for onset of drug-induced granulocytopenia” (Otsuka Pharmaceutical Co., Ltd., priority 2003, dated 2013).

System: human IRS-2 gene
Test: Association analysis of human IRS-2 gene polymorphisms and granulocytopenia induced by vesnarinone administration
Assay type: in vivo
Conditions: subjects who had received vesnarinone
Source text: In order to find genetic polymorphisms in relation to granulocytopenia attributed to drug administration, there were employed subjects who had received vesnarinone (3,4-dihydro-6-[4-(3,4-dimethoxybenzoy1)-1-piperaziny1]-2(1H)-quinoline).
Among subjects who had received vesnarinone, had orally agreed to cooperate with investigation of the cause for vesnarinone-induced granulocytopenia between May 1991 and October 1996, and had accepted to provide a blood sample, there were employed 84 subjects (male/female ratio=1.21:1) who had again agreed in writing to cooperate with genetic analysis according to ethical guidelines between July 2001 and December 2001. Genomic DNA was extracted from a blood sample (or a cell sample derived therefrom) of each of the subjects who had again agreed described above. through a common method, and was employed for the below-described tests.
Among the subjects, subjects having leukocytes or neutrophils which were decreased to half or less following vesnarinone administration, and having the number of leukocytes of 2,000/mm^3 or less, or the number of neutrophils of 1,000/mm^3 or less were classified as “subjects with granulocytopenia”.
Each of these groups was further classified into two groups according to sex, to thereby become four subgroups; i.e., a group of 13 male with granulocytopenia (group A), a group of 17 female with granulocytopenia (group B), a group of 33 male without granulocytopenia (group C), and a group of 21 female without granulocytopenia (group D).
The allele frequencies in the group of subjects with granulocytopenia were compared to that of subjects without granulocytopenia by the contingency χ square test. The odds ratio was estimated through the Brown method (Brown, C. C., Am. J. Epidemiol., 113: 474-480 (1981)). The 95% confidence interval of odds ratio was calculated through the Woolf method.
In order to determine the genotype distribution, all polymorphisms identified by the discovery above were analyzed in the all subjects described in Example 1 by amplifying the regions containing the polymorphisms with primer sets and sequencing the PCR products under the condition described above.
In addition to the statistical methods employed in Example 1, a pair-wise linkage disequilibrium coefficient (D′=D/Dmax or D/Dmin) was calculated by use of the method by Thompson, et al. (Thompson, E. A., et al., Am. J. Hum. Genet. 42: 113-124 (1988))

subjects with agranulocytosis N (%) (IRS-2 A15870G genotype AA, total 27): 10 (37.0) N (%)
subjects without agranulocytosis N (%) (IRS-2 A15870G genotype AA, total 49): 36 (73.5) N (%)
subjects with agranulocytosis N (%) (IRS-2 A15870G genotype AG + GG, total 27): 17 (63.0) N (%)
subjects without agranulocytosis N (%) (IRS-2 A15870G genotype AG + GG, total 49): 13 (26.5) N (%)
subjects with agranulocytosis N (%) (IRS-2 A29793G genotype AA, total 30): 11 (36.7) N (%)
subjects without agranulocytosis N (%) (IRS-2 A29793G genotype AA, total 53): 39 (73.6) N (%)
subjects with agranulocytosis N (%) (IRS-2 A29793G genotype AG + GG, total 30): 19 (63.3) N (%)
subjects without agranulocytosis N (%) (IRS-2 A29793G genotype AG + GG, total 53): 14 (26.4) N (%)
subjects with agranulocytosis N (%) (IRS-2 A-1164C genotype AA, total 30): 8 (26.7) N (%)
subjects without agranulocytosis N (%) (IRS-2 A-1164C genotype AA, total 49): 29 (59.2) N (%)
subjects with agranulocytosis N (%) (IRS-2 A-1164C genotype AC + CC, total 30): 22 (73.3) N (%)
subjects without agranulocytosis N (%) (IRS-2 A-1164C genotype AC + CC, total 49): 20 (40.8) N (%)
subjects with agranulocytosis N (%) (IRS-2 AT-2510del genotype AT, total 29): 7 (24.1) N (%)
subjects without agranulocytosis N (%) (IRS-2 AT-2510del genotype AT, total 49): 28 (57.1) N (%)
subjects with agranulocytosis N (%) (IRS-2 AT-2510del genotype ATdel + del, total 29): 22 (75.9) N (%)
subjects without agranulocytosis N (%) (IRS-2 AT-2510del genotype ATdel + del, total 49): 21 (42.9) N (%)
subjects with agranulocytosis N (%) (IRS-2 C31532del genotype CC, total 27): 9 (33.3) N (%)
subjects without agranulocytosis N (%) (IRS-2 C31532del genotype CC, total 48): 34 (70.8) N (%)
subjects with agranulocytosis N (%) (IRS-2 C31532del genotype Cdel + del, total 27): 18 (66.7) N (%)
subjects without agranulocytosis N (%) (IRS-2 C31532del genotype Cdel + del, total 48): 14 (29.2) N (%)
subjects with agranulocytosis N (%) (IRS-2 C-4587A genotype CA + AA, total 28): 21 (75.0) N (%)
subjects without agranulocytosis N (%) (IRS-2 C-4587A genotype CA + AA, total 49): 20 (40.8) N (%)
subjects with agranulocytosis N (%) (IRS-2 C-4587A genotype CC, total 28): 7 (25.0) N (%)
subjects without agranulocytosis N (%) (IRS-2 C-4587A genotype CC, total 49): 29 (59.2) N (%)
Compound: COc1ccc(C(=O)N2CCN(c3ccc4c(c3)CCC(=O)N4)CC2)cc1OC [vesnarinone, 3,4-dihydro-6-[4-(3,4-dimethoxybenzoy1)-1-piperaziny1]-2(1H)-quinoline]
